From patent publication US10202658B2, “Methods for determining hypersusceptibility of HIV-1 to non-nucleoside reverse transcriptase inhibitors” (Monogram Biosciences, Inc., priority 2005, dated 2019)

How the values were obtained:
Format in all cases: cell-based
[1] = test system: HIV-1, RT mutations: None; assay: PhenoSense resistance test vector assay, clinical isolates without NRTI, NNRTI or PI mutations (WT reference group); details: share of samples designated hypersusceptible
Method: (§1) In preferred embodiments, the phenotypic analysis of NNRTI hypersusceptibility is performed using PHENOSENSE™ (ViroLogic Inc., South San Francisco, Calif.). See Petropoulos et al., 2000, Antimicrob. Agents Chemother. 44:920-928; U.S. Pat. Nos. 5,837,464 and 6,242,187. PHENOSENSE™ is a phenotypic assay that achieves the benefits of phenotypic testing and overcomes the drawbacks of previous assays. Because the assay has been automated, PHENOSENSE™ provides high throughput methods under controlled conditions for determining NNRTI resistance, susceptibility, or hypersusceptibility of a large number of individual viral isolates.
(§2) The assay can be performed by first co-transfecting host cells with RTV DNA and a plasmid that expresses the envelope proteins of another retrovirus, for example, amphotropic murine leukemia virus (MLV). Following transfection, viral particles can be harvested from the cell culture and used to infect fresh target cells in the presence of varying amounts of anti-viral drug(s). The completion of a single round of viral replication in the fresh target cells can be detected by the means for detecting replication contained in the vector. In a preferred embodiment, the completion of a single round of viral replication results in the production of luciferase. By monitoring the amount of, e.g., luciferase activity in the presence of the varying amounts of antiviral drug(s), a resistance curve can be constructed by plotting luciferase activity versus drug concentration. The susceptibility of an HIV, or population of HIV, can be determined by measuring the concentration of antiviral drug at which the luciferase activity detected is half-maximal. This number, the IC50, provides a standard and convenient measure of drug resistance.
(§3) Patient-derived segment(s) corresponding to the HIV protease and reverse transcriptase coding regions were amplified by the reverse transcription-polymerase chain reaction method (RT-PCR) using viral RNA isolated from viral particles present in the plasma or serum of HIV-infected individuals as follows. […]

[2] = test system: HIV-1, RT mutations: 1 NAM; assay: PhenoSense resistance test vector assay, clinical isolates with 1 NAM; details: share of samples designated hypersusceptible
Method: as §1, §2, §3

[3] = test system: HIV-1, RT mutations: 2 NAMs; assay: PhenoSense resistance test vector assay, clinical isolates with 2 NAMs; details: share of samples designated hypersusceptible
Method: as §1, §2, §3

HIV-1, RT mutations: 69X = assay: PhenoSense resistance test vector assay, clinical isolates with 69X; details: share of samples designated hypersusceptible
Method: as §1, §2, §3

[4] = test system: HIV-1, RT mutations: K70R and 2 TAMs; assay: PhenoSense resistance test vector assay, clinical isolates with K70R and 2 TAMs; details: share of samples designated hypersusceptible
Method: as §1, §2, §3

[5] = test system: HIV-1, RT mutations: T215Y and 2 TAMs and V118I; assay: PhenoSense resistance test vector assay, clinical isolates with T215Y and 2 TAMs and V118I; details: share of samples designated hypersusceptible
Method: as §1, §2, §3

[6] = test system: HIV-1, RT mutations: T215Y and 2 TAMs and V118 wt; assay: PhenoSense resistance test vector assay, clinical isolates with T215Y and 2 TAMs and V118 wt; details: share of samples designated hypersusceptible
Method: as §1, §2, §3

[7] = test system: HIV-1 NL4-3 SDM, K65R in reverse transcriptase; assay: NNRTI susceptibility of site-directed mutant (SDM) bearing only K65R in NL4-3 background; details: mean+/-SD of 18 replicates, p<0.00001 versus reference
Method: as §1
as §2, with “By monitoring the amount of, e.g., luciferase activity in the presence of the varying amounts of antiviral drug(s), a resistance curve can be constructed by plotting luciferase activity versus drug concentration.” left out, “This number, the IC50, provides a standard and convenient measure of drug resistance.” left out
(§4) Resistance tests were carried out with resistance test vectors using two host cell types. […] The resistance test vector viral particles were then used to infect a second host cell (the target host cell) in which the expression of the indicator gene is measured.
(§5) The amount of luciferase activity detected in infected cells is used as a direct measure of “infectivity,” i.e., the ability of the virus to complete a single round of replication. Thus, drug resistance or sensitivity can be determined by plotting the amount of luciferase activity produced by patient derived viruses in the presence of varying concentrations of the antiviral drug. […]

[8] = test system: HIV-1 NL4-3 SDM, M184V in reverse transcriptase; assay: NNRTI susceptibility of site-directed mutant (SDM) bearing only M184V in NL4-3 background; details: mean+/-SD of 17 replicates, p<0.00001 versus reference
Method: as §1
as §2, with “By monitoring the amount of, e.g., luciferase activity in the presence of the varying amounts of antiviral drug(s), a resistance curve can be constructed by plotting luciferase activity versus drug concentration.” left out, “This number, the IC50, provides a standard and convenient measure of drug resistance.” left out
as §4, §5

| SMILES | % IC50 0.4 fold < WT [1] [%] | % IC50 0.4 fold < WT [2] [%] | % IC50 0.4 fold < WT [3] [%] | % IC50 0.4 fold < WT (HIV-1, RT mutations: 69X) [%] | % IC50 0.4 fold < WT [4] [%] | % IC50 0.4 fold < WT [5] [%] | % IC50 0.4 fold < WT [6] [%] | FC (fold change in IC50) [7] | FC (fold change in IC50) [8] |
| --- | --- | --- | --- | --- | --- | --- | --- | --- | --- |
| CC(C)Nc1cccnc1N1CCN(C(=O)c2cc3cc(NS(C)(=O)=O)ccc3[nH]2)CC1 [DLV, delavirdine] | 4.9 | 13.2 | 30.1 | 13.2 | 15.7 | 63.8 | 83.9 | 0.54+/−0.03 | 0.65+/−0.05 |
| O=C1Nc2ccc(Cl)cc2[C@@](C#CC2CC2)(C(F)(F)F)O1 [EFV, efavirenz] | 4.2 | 17.8 | 39.8 | 19.8 | 31.0 | 39.6 | 78.1 | 0.56+/−0.02 | 0.65+/−0.03 |
| Cc1ccnc2c1NC(=O)c1cccnc1N2C1CC1 [NVP, nevirapine] | 8.1 | 18.0 | 39.8 | 20.8 | 36.9 | 27.1 | 37.5 | 0.53+/−0.05 | 0.67+/−0.05 |
